Tests used:
anaesthetised rats = assay: Mean arterial blood pressure in anaesthetised rats; type: in vivo, rat
Method: Figure 7 Cardiovascular effects of ELDP. […] (B) vasoconstrictor response to ET-1 (1 × 10^−9 M) alone (n = 8) or after pre-incubation with ELDP[162-amide] (10 × 10^−9 M, n = 10); P < 0.002; Student’s t-test. (C) Change in mean arterial blood pressure in anaesthetised rats following ET-1 (0.3 nmol/kg, i.v.) alone (white circles, n = 6) or 15 min after ELDP (3 nmol/kg i.v.) (red circles, n = 6). […] Results are mean ± s.e.m.
All experiments were conducted according to the Animals (Scientific Procedures) Act 1986, UK, and approved by the UK Home Office. Clearance rates of proET-1 peptides and blood pressure effects of ELDP were determined in male Wistar rats (Charles River) anaesthetised with sodium thiopentone (120 mg/kg i.p.). Peptides were administered i.v. via a polyethylene catheter in the left femoral vein. Blood samples (0.5 ml) were collected from a catheter in the left carotid artery into chilled 1.5 ml microcentrifuge tubes containing 50 U/5 µl of heparin. Samples were centrifuged at 12,000 rpm for 2 min at 4 °C. Plasma (50 µl aliquots) samples were stored at −80 °C for subsequent analyses. Blood pressure and heart rate were recorded from the left carotid artery via a polyethylene catheter using Labchart 7.1 (AD Instruments Ltd).

orphan GPCRs = assay: PathHunter Orphan GPCR biosensor panel (ß-arrestin binding, ß-galactosidase complementation); type: cell-based; settings: 0.1 µM ELDP, 90 min at room temperature, duplicate, 5000 cells per well; chemiluminescence; no response above three standard deviations of control
Description: An important component of ET-1-induced vasoconstriction is Ca^2+ influx through voltage-gated L-type Ca^2+ channels, [67]. Modulation of ET-1 responses by ELDP therefore likely involves facilitation of Ca^2+ influx. Responses to norepinephrine and serotonin are also augmented by ET-1, and this has been attributed to increased Ca^2+ influx[68]–[70]. To investigate whether ELDP mediates its effects via a distinct G-protein coupled receptor (GPCR), whose ligand pairing had yet to be assigned, ELDP was evaluated against a panel of cell-expressed orphan GPCRs using a detection system based on ß-arrestin binding (Supplementary Figure S3). […]
arrestin and to the GPCR complementing each other to reconstitute ß-galactosidase activity, which is then measured by chemiluminescence ß-galactosidase assay as an index of receptor binding (1,2).
Orphan GPCR screening for ELDP was undertaken by DiscoverRx Corporation, Fremont, CA 94538, USA. […] At the end of the incubation period chemiluminescent substrate was add, and incubated for 60 min before measurement of relative luminescence (RLU) using a PerkinElmer […]
Data Analysis: Percentage activity was calculated for each test well relative to the mean RLU of the corresponding vehicle-treated GPCR. Results are expressed as mean control (%) ± coefficient of […]

ALENLLPTKATDRENRCQCASQKDKKCWNFCQAGKELRAEDIMEKDWNNHKKGKDCSKLGKKCIYQQLVRGRKI (disulfide (positions not given here)) [ELDP]
effect on blood pressure, peptide alone (anaesthetised rats; 3 nmol/kg i.v., anaesthetised rats): no effect
magnitude of the initial pressor response to ET-1 (anaesthetised rats; ET-1 0.3 nmol/kg i.v. given 15 min after ELDP 3 nmol/kg i.v., n = 6 per group): without changing
duration of the pressor response to ET-1 (anaesthetised rats; ET-1 0.3 nmol/kg i.v. given 15 min after ELDP 3 nmol/kg i.v., n = 6 per group, P < 0.02): significantly increased
receptor – ligand pairing in orphan GPCR screen (orphan GPCRs): failed to identify an ELDP receptor – ligand pair

From article PMC5503984, “Characterisation of preproendothelin-1 derived peptides identifies Endothelin-Like Domain Peptide as a modulator of Endothelin-1” (Scientific Reports, 2017)
